{
  "source": "patent US12076331B2",
  "about": "“Inositol derivatives for use in pathological crystallization” (ETH Zurich, priority 2015, dated 2024)",
  "key": {"[1]": {"tested_on": "high phosphate-induced kidney damage", "experiment": "mouse model of high phosphate-induced kidney damage", "type": "in vivo, C57BL/6 male mice", "settings": "100 mg/kg 3 times/week subcutaneously, high phosphate diet, vs vehicle", "protocol": "C57BL/6 male were placed on either regular diet containing 0.35% inorganic phosphate (NP) or high phosphate diet containing 2.0% inorganic phosphate (HP). These mice were subcutaneously injected with either (OEG2)2-IP4 (100 mg/kg) or vehicle (distilled water) three times a week and then sacrificed at 20 weeks of age to harvest their blood and kidneys. Relative mRNA levels of (A) Spp1, (B) IL36a, (C) Ngal, (D) MMP3 and (E) Col1a1 in kidney tissue homogenate are shown (mean±SD, N=7, except HP vehicle group N=6, two-way ANOVA with Sidak's multiple comparison between (OEG2)2-IP4 vs. vehicle control within the respective diet group, ns—not significant, * p<0.05). […]\nC57BL/6 male mice (12 weeks of age) were placed on either regular diet containing 0.35% inorganic phosphate or high phosphate diet containing 2.0% inorganic phosphate. […] Serum FGF23 levels were measured using intact FGF23 ELISA (Kinos) according to the manufacturers' protocols. Serum and urine levels of phosphate were measured using Fuji Dri-Chem slides and the analyzer (Dri-Chem NX500V, Fuji, Tokyo, Japan). […] Quantitative RT-PCR reactions were performed using 20 ng of cDNA incubated with 410 nM of each primer and 6 μL of SYBR Green PCR Master mix (Toyoba, Osaka, Japan THUNDERBIRD SYBR qPCR Mix QPS-201) in a total volume of 12 μl. […] The cortex and the cortico-medullary junction were evaluated separately. […]"}, "[2]": {"settings": "previous study, Kletzmayr et al. 2020; cited from earlier work"}},
  "data": [
    {"molecule": "COCCOCCO[C@@H]1C(OP(=O)(O)O)[C@H](OCCOCCOC)[C@@H](OP(=O)(O)O)C(OP(=O)(O)O)[C@H]1OP(=O)(O)O", "note": "(stereo partly drawn) [(OEG2)2-IP4]", "values": [
      {"measurement": "fibrosis, collagen volume fraction (Picro-Sirius red staining of the kidneys)", "setting": "[1]", "result": "significantly reduces fibrosis"},
      {"measurement": "kidney damage and fibrosis markers (Spp1, IL36a, Ngal, MMP3, Col1a1 mRNA)", "setting": "[1]", "result": "significantly reduced"},
      {"measurement": "efficacy on CaOx crystallization in solution", "setting": "[2]", "result": "limited efficacy"}
    ]}
  ]
}
